From article PMC12196476, “New Nitrogen-, Oxygen-, and Sulfur-Containing Heterocyclic Compounds as Anti-Colon Cancer Agents: Synthesis, Multitargeted Evaluations, Molecular Docking Simulations and ADMET Predictions” (Pharmaceuticals, 2025) come the findings set out here.

Data set [1] has as its target PDK-1 (Homo sapiens, UniProt Q15118). Nature of the data set: In vitro PDK-1 inhibition assay (Kinase-Glo luminescent kinase kit). It counts as biochemical. (Kinase-Glo reads ATP consumption through a luciferase reaction.)
Data set [2] can be described thus: Cell viability, LDH release assay, normal HUVECs. The note with it: human, normal HUVECs, Mean % of viable cells ± SD, HUVEC.
Data set [3] deals with HCT-116 cells. The data set is described as follows: Intracellular ROS level (human ROS ELISA kit), HCT-116. The note with it: 30 µg/mL, 48 h. The format is cell-based. The method, then: To determine whether compound 3d induces oxidative stress, intracellular ROS levels were quantified after treatment (30 µg/mL, 48 h) using a human ROS ELISA kit.
A Human ROS ELISA Kit was used to measure the intracellular accumulation of ROS in the 3d-treated LoVo and HCT-116 cells. […]
medium served used as negative and positive controls, respectively. Percentages of viable cells […]
wells (final concentration of 100 μg/mL), compared to the negative control, and expressed as mean value (%) ± SD from two replicates. Graphing dose-response curves representing the compound […]
(HUVECs) at final concentration of 100 μg/mL . HUVECs were grown in Dulbecco’s Modified Eagle’s Medium supplemented with 10% FBS, 2 mM glutamine (Sigma Aldrich), 100 units/mL penicillin and […] streptomycin (Life Technologies; Paisley, UK).
S3.2.5. Cell cycle assay.
HCT-116 and LoVo cultures upon treatment with compound 3d. HCT-116 and LoVo carcinoma […]
μg/mL for 48 h. […] Then, cells […]
were fixed by mixing […] of 90% cold ethanol and stained with propidium iodide (PI) for 1 h at 37 °C. RNase A (10 mg/mL) was added in order to […] the ability of PI to bind only to DNA […]
S3.2.6. Annexin-V-FITC assay. […]
treatment with compound 3d. […]
of stained cancerous cells were determined. […]
carcinoma cells treated with compound 3d was assessed using the TMRE Mitochondrial Membrane

Structures are written as SMILES. Where “and” joins values, the source holds several entries; their conditions need not be identical. Identical values can stand only once.

Sequence of PDK-1 (Q15118 29-436): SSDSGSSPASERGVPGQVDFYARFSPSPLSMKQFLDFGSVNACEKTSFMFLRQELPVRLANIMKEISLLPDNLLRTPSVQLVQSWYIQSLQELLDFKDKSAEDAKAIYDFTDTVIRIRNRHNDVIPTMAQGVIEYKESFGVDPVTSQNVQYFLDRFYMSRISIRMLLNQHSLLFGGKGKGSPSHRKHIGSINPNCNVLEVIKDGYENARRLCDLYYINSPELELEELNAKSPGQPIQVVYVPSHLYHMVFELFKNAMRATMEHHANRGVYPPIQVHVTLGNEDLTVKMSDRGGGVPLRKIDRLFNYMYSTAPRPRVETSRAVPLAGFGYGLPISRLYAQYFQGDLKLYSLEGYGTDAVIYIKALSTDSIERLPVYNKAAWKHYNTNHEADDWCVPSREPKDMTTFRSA

For the molecule `COc1cc(/C=N/c2ncnc3sc4c(c23)CCCC4)cc(OC)c1OC` [Compound 3d, (E)-N-(5,6,7,8-Tetrahydrobenzo[4,5]thieno[2,3-d]pyrimidin-4-yl)-1-(3,4,5-trimethoxyphenyl)methanimine], the inhibition at 100 µg/mL in data set [1] (100 µg/mL, three replicates, read-out: Mean Inhibition Percent ± SD, PDK-1) came out at 41.8 ± 3.39%. Further, in data set [1] (three independent experiments, read-out: Mean IC50 µM ± SD, PDK-1), the IC50 amounted to 305 ± 11.1 µM. In addition, in data set [2], the viability at 48 h, 100 µg/mL was ~90%. The “ROS, Fold of control, HCT-116” value in data set [3] amounted to 2.0. The “[ROS] pg/mL ± SD, HCT-116” value in data set [3] (control 143.5 ± 6.8, two independent experiments) was 290.1 ± 12.7 pg/mL and 290.1 pg/mL.

The term inhibition denotes the relative decrease from the control value, in per cent. Usually IC50 stands for the concentration at which inhibition is half-maximal. In general, viability refers to a read-out of living cells in per cent, often relative to untreated cells.
